According to patent US11352350B2, “IRAK degraders and uses thereof” (Kymera Therapeutics, Inc., priority 2018, dated 2022):

Experiments:
[1] = target: T1, IRAK4 (Homo sapiens (Human), UniProt Q9NWZ3); experiment: IRAK4 MSD degradation in OCI-LY10; assay type: cell-based
Outline: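 Remaining IRAK4 quantified by electrochemiluminescent MSD sandwich assay with two anti-IRAK4 antibodies. Compounds were dosed as 8 concentrations in 1:3 steps from a 1 to 10 μM final top on OCI-LY10 cells, incubated 4 to 24 h at 37° C. under 5% CO2. DC50 fitted with a three-parameter logistic curve.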

[2] = target: T1, IRAK4; experiment: hPBMC IRAK4 degradation flow assay; assay type: cell-based; conditions: hPBMC monocyte
Outline: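 Thawed human PBMCs treated with 10-point, 5-fold compound dilutions (0.1% DMSO) at 37° C. for 20 hours or 4 hours. IRAK4 measured by flow MFI in CD14+ monocytes and CD14− lymphocytes, normalized to DMSO and 10 μM 20-hour control; DC50 and max degradation from 4-parameter logistic fit.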

[3] = system: OCI-LY10; experiment: CTG Cell Viability Assay - OCI-LY10; assay type: cell-based, human; conditions: Homo sapiens, OCI-Ly10, 96 h, OCI-LY10, 4 days; read-out: CTG Cell Viability Assay - OCI-LY10: Average external-IC50
Outline: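 Viability read by CellTiter-Glo luminescence after 4 days at 37° C under 5% CO2 with compound (top 10 μM final, 1:3 steps, 9 doses, DMSO 0.2%). Three-parameter logistic fit gave IC50.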

[4] = system: IL-6; experiment: IL-6 secretion in hPBMC using R848 stimulation; assay type: cell-based, human; conditions: Homo sapiens, 20 h, hPBMC, R848 as stim, t = 20 h
[5] = OCI-LY10, 4 hrs, read-out: IRAK4 MSD degradation in OCI-LY10 at 4 hrs: DC50
[6] = 20 hrs, read-out: IRAK4 degradation in hPBMC monocyte: DC50
[7] = OCI-LY10, 4 hrs, MSD, read-out: IRAK4 MSD degradation in OCI-LY10 at 4 hrs: Average external-Abs DC50
[8] = 20 hr, flow assay, read-out: IRAK4 degradation in hPBMC monocyte at 20 hr: Average external Abs DC50

T1 sequence (Q9NWZ3 whole entry): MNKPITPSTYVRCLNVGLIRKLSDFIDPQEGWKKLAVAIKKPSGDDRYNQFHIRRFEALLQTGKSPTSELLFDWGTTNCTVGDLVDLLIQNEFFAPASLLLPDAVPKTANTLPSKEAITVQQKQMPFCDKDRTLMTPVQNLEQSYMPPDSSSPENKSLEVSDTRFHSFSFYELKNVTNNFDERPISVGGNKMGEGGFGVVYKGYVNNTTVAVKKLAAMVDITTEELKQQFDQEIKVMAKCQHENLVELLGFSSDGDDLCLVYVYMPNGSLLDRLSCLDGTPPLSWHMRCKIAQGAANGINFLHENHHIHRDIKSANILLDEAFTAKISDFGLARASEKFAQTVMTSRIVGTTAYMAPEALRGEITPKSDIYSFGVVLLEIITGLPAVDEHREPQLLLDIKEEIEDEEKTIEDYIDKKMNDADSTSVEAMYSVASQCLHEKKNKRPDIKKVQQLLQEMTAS

| SMILES | DC50 [1, 5] | DC50 [2, 6] | IC50 [3] | IC50 [4] | DC50 [1, 7] | DC50 [2, 8] | DC50 ([1]; OCI-LY10, 24 hrs, MSD, read-out: IRAK4 MSD degradation in OCI-LY10 at 24 hrs: Average external-Abs DC50) |
| --- | --- | --- | --- | --- | --- | --- | --- |
| Cn1c(=O)n(C2CCC(=O)NC2=O)c2cccc(CN3C[C@H]4CC[C@@H](C3)N4CC[C@H]3CC[C@H](n4cc(NC(=O)c5cnn6ccc(N7C[C@H]8C[C@@H]7CO8)nc56)c(C(F)F)n4)CC3)c21 (stereo partly shown) [I-511] | 10 to 100 nM | < 10 nM | > 1000 nM | 1 to 10 nM |  |  |  |
| Cn1c(=O)n(C2CCC(=O)NC2=O)c2cccc(CCCOC[C@@H]3CN(C[C@H]4CC[C@H](n5cc(NC(=O)c6cnn7ccc(N8CCOCC8)nc67)c(C(F)F)n5)CC4)CCO3)c21 (stereo partly shown) [I-448] | 10 to 100 nM | < 10 nM | > 1000 nM | 1 to 10 nM |  |  |  |
| Cn1c(=O)n(C2CCC(=O)NC2=O)c2cccc(CCCCC3CCN(C(=O)c4ccc(-n5cc(NC(=O)c6cnn7ccc(N8C[C@H]9C[C@@H]8CO9)nc67)c(C(F)F)n5)cc4)CC3)c21 (stereo partly shown) [I-426] |  |  | > 1000 nM | 1 to 10 nM | 100 to 1000 nM | < 10 nM |  |
| CN(CCCc1cccc2c1n(C)c(=O)n2C1CCC(=O)NC1=O)C(=O)c1ccc(N2CCC(n3cc(NC(=O)c4cnn5ccc(N6C[C@H]7C[C@@H]6CO7)nc45)c(C(F)F)n3)CC2)cc1 (stereo partly shown) [I-479] | 100 to 1000 nM | 100 to 1000 nM | > 1000 nM | 10 to 100 nM |  |  |  |
| CC[C@@H]1[C@H](F)C(=O)N[C@@H]1COc1ncc(C#C[C@H]2CC[C@H](CN(C)CCCOCCCc3ccc4c(c3)n(C)c(=O)n4C3CCC(=O)NC3=O)CC2)c2cc(C(N)=O)c(OC)cc12 (stereo partly shown) [I-185] |  |  | > 1000 nM | < 1 nM | 10 to 100 nM | < 10 nM | 10 to 100 nM |
| Cn1c(=O)n(C2CCC(=O)NC2=O)c2cccc(CCN3CC4(CCN(C(=O)[C@H]5CC[C@H](n6cc(NC(=O)c7cnn8ccc(N9C[C@H]%10C[C@@H]9CO%10)nc78)c(C(F)F)n6)CC5)CC4)C3)c21 (stereo partly shown) [I-420] |  |  | < 50 nM | < 1 nM | < 10 nM | < 10 nM |  |
| Cn1c(=O)n(C2CCC(=O)NC2=O)c2cccc(CCC3CCN(c4ccc(CN5CCC(n6cc(NC(=O)c7cnn8ccc(N9C[C@H]%10C[C@@H]9CO%10)nc78)c(C(F)F)n6)CC5)cc4)CC3)c21 (stereo partly shown) [I-517] | 10 to 100 nM | < 10 nM | > 1000 nM | 1 to 10 nM |  |  |  |
| CN(CC(CCCOCCCc1cccc2c1n(C)c(=O)n2C1CCC(=O)NC1=O)C(=O)O)C[C@H]1CC[C@H](n2cc(NC(=O)c3cnn4ccc(N5C[C@H]6C[C@@H]5CO6)nc34)c(C(F)F)n2)CC1 (stereo partly drawn) [I-495, 2-[[[4-[3-(Difluoromethyl)-4-[[5-[(1R,4R)-2-oxa-5-azabicyclo [2.2.1]heptan-5-yl]pyrazolo [1,5-a]pyrimidine-3-carbonyl]amino]pyrazol-1-yl]cyclohexyl]methyl-methyl-amino]methyl]-5-[3-[1-(2,6-dioxo-3-piperidyl)-3-methyl-2-oxo-benzimidazol-4-yl]propoxy]pentanoic acid] | 100 to 1000 nM | 10 to 100 nM | > 1000 nM | 10 to 100 nM |  |  |  |
| Cn1c(=O)n(C2CCC(=O)NC2=O)c2cccc(CCCC3CCN(C[C@H]4CC[C@H](n5cc(NC(=O)c6cnn7ccc(N8C[C@H]9C[C@@H]8CO9)nc67)c(C(F)F)n5)CC4)CC3)c21 (stereo partly shown) [I-416] |  |  | > 1000 nM | < 1 nM | < 10 nM | < 10 nM |  |
| O=C1CCC(n2c3cccc(C#CCOC4CCN(C[C@H]5CC[C@H](n6cc(NC(=O)c7cnn8ccc(N9C[C@H]%10C[C@@H]9CO%10)nc78)c(C(F)F)n6)CC5)CC4)c3c3cccnc32)C(=O)N1 (stereo partly shown) [I-482] | 10 to 100 nM | 100 to 1000 nM | > 1000 nM | 1 to 10 nM |  |  |  |
| CN(CC(CCCOCCCc1cccc2c1n(C)c(=O)n2C1CCC(=O)NC1=O)C(=O)O)C[C@H]1CC[C@H](n2cc(NC(=O)c3coc(-c4ccnc(NCC5CC5)c4)n3)c(C(F)F)n2)CC1 (stereo partly shown) [I-396, 2-[[[4-[4-[[2-[2-(Cyclopropylmethylamino)-4-pyridyl]oxazole-4-carbonyl]amino]-3-(difluoromethyl)pyrazol-1-yl]cyclohexyl]methyl-methyl-amino]methyl]-5-[3-[1-(2,6-dioxo-3-piperidyl)-3-methyl-2-oxo-benzimidazol-4-yl]propoxy]pentanoic acid] |  |  | 50 to 100 nM | 1 to 10 nM | 10 to 100 nM | 10 to 100 nM |  |
| Cn1c(=O)n(C2CCC(=O)NC2=O)c2cccc(C#CCCCNC[C@H]3CC[C@H](n4cc(NC(=O)c5cnn6ccc(N7C[C@H]8C[C@@H]7CO8)nc56)c(C(F)F)n4)CC3)c21 (stereo partly drawn) [I-518, N-[3-(difluoromethyl)-1-[4-[[5-[1-(2,6-dioxo-3-piperidyl)-3-methyl-2-oxo-benzimidazol-4-yl]pent-4-ynylamino]methyl]cyclohexyl]pyrazol-4-yl]-5-[(1R)-2-oxa-5-azabicyclo[2.2.1]heptan-5-yl]pyrazolo[1,5-a]pyrimidine-3-carboxamide] | 10 to 100 nM | < 10 nM | > 1000 nM | 1 to 10 nM |  |  |  |
